Laboratory results from publication PMC10226132, “First-in-Class Selective Inhibitors of the Lysine Acetyltransferase KAT8” (Journal of Medicinal Chemistry, 2023).

Assays:
A549 cells = test: MTT cell proliferation assay, A549; assay type: cell-based, human; details: for antiproliferative activity in A549: 10, 25, 50, 100 μM; for IC50: 72 h treatment, MTT
From the text: (§1) Human commercially available AML U937, breast cancer MCF7, lung adenocarcinoma NCI-H460, H1299 and A-549, glioblastoma U251, B lymphocyte AHH1 cell lines were maintained in compete 10% foetal bovine serum (FBS,) RPMI 1640 (Euroclone, Milan, IT) medium. Human commercially available colon cancer HCT116 and HT29 lines and cervix adenocarcinoma HeLa cells were maintained in compete 10% FBS Dulbecco’s Modified Eagle Medium (DMEM) high glucose medium (Euroclone). L-Glutamine, FBS, and penicillin streptomycin mixture added to medium were obtained from Euroclone. All cell lines were cultured at 37 °C in a humidified atmosphere of 5% CO2:95% air and were tested for mycoplasma contamination routinely by RT-PCR.
(§2) For analysis of cell proliferation, cells were plated in sextuplicate on 96-well plates in complete media. After 24 h, cells were exposed to different drugs for 72 h. The inhibitory effect of different drugs was assessed by MTT (Sigma, St. Louis, MO, USA) colorimetric assays as previously reported.[67] Aqueous DMSO (0.5% v/v) was used as a control (untreated). The results are reported as “viability of drug-treated cells/viability of untreated cells” × 100 and represent the average ±SD of three independent experiments. IC50 values were using fitted by nonlinear regression using GraphPad Prism 8.0.

H1299 cells = test: MTT cell proliferation assay, H1299; assay type: cell-based, human; details: for antiproliferative activity in H1299: 10, 25, 50, 100 μM, 72 h; for IC50: Homo sapiens, NCI-H1299, 72 h treatment, MTT
From the text: as §1, §2

[1] = tested on: human intestinal epithelial cells (InEpC); test: Proliferation of human intestinal epithelial cells (InEpC); assay type: cell-based; details: 25, 50, 100, 200 μM, 72 h
Description: as §2

[2] = tested on: HOXA9 mRNA in HCT116 cells; test: qRT-PCR of HOXA9 mRNA in HCT116 cells; assay type: cell-based, human; details: HCT116, 100 μM, 48 h
Description: Total RNA was isolated from cells after 48 h of treatment with compounds 19 and 34 (100 μM) using TRIzol reagent (Life Technologies) following the manufacturer’s instructions. cDNA was obtained by reverse transcription using a SensiFast cDNA Synthesis kit (Meridian Bioscience). qRT-PCR was performed using a Luna Universal qPCR Master Mix (BioLabs) and detected by Quant Studio3. The fold change of gene expression data was calculated by using the ddCT method. All samples were run in sextupled, and the results were presented as mean ± SEM. Detailed sequence of the primers used in the experiments can be found in the list below. • UCP2—Forward: 5′-[…]-3′ • Reverse 5′-[…]-3′ • HOXA9 — Forward: 5′-[…]-3′ • Reverse: 5′-[…]-3′

[3] = tested on: LC3 and p62 in HeLa cells; test: Western blot of autophagic markers in HeLa cells; assay type: cell-based, human; details: increasing doses, 48 h
Description: For WB experiments, the cells were lysed in RIPA buffer supplemented with 1× […] protease inhibitor cocktail (Sigma-Aldrich, S8830); 20 μg of total protein was resolved in 13.5% gels by SDS-PAGE. Then, the proteins were transferred to nitrocellulose membranes (Biorad Laboratories). Membranes were blocked for 1 h and incubated overnight with the appropriate primary antibody at 4 °C. After incubation, membranes were washed and incubated with the appropriate secondary antibody (Biorad Laboratories) for 1 h at room temperature. Following primary rabbit monoclonal antibodies H4K16Ac (1:1000, E2B8W, Rabbit mAb#13534, Cell Signalling Technology), KAT8 (1:1000, D5T3R Rabbit mAb #46862 Cell Signalling Technology), GAPDH (1:1000, sc-32233, Santa Cruz Biotechnologies), anti-LC3B (Sigma-Aldrich, L7543), anti-SQSTM1/p62 (Santa Cruz Biotechnology, sc-28,359), and anti-GAPDH (Santa Cruz Biotechnology, sc-32,233). Secondary antibodies: anti-mouse (Bio-Rad Laboratories, 1,706,515) or anti-rabbit (Bio-Rad Laboratories, 1,706,516) IgG-horseradish peroxidase-conjugated antibodies. Detection was performed by ECL Western Blotting Substrate (Biorad Laboratories). Images of blots were acquired through the ChemiDoc Imaging Systems (Biorad Laboratories). The band signals were quantified using ImageJ, and values were normalized to relative controls, depending on the analysis.

KDAC2, 3, 6, and 8 = tested on: KDAC2, 3, 6, and 8; design: method as in PMID 26718586; details: cited from earlier work

CC1=NN(c2ccc(C(=O)O)cc2)C(=O)/C1=C\c1ccc[nH]1 [Compound 19, (Z)-4-(4-((1H-Pyrrol-2-yl)methylene)-3-methyl-5-oxo-4,5-dihydro-1H-pyrazol-1-yl)benzoic Acid]
antiproliferative activity in A549 (A549 cells; 72 h): dose-dependent antiproliferative effects
IC50 (A549 cells; Homo sapiens, A549): 41 ± 9.8 µM
antiproliferative activity in H1299 (H1299 cells): dose-dependent antiproliferative effects
IC50 (H1299 cells): 52.1 ± 10.6 µM
effect on proliferation of InEpC [1]: did not significantly affect the proliferation

O=C(O)c1ccc(N2N=C(c3ccccc3)/C(=C/c3ccc[nH]3)C2=O)cc1 [Compound 34, (Z)-4-(4-((1H-Pyrrol-2-yl)methylene)-5-oxo-3-phenyl-4,5-dihydro-1H-pyrazol-1-yl)benzoic Acid]
antiproliferative activity in A549 (A549 cells; 72 h): dose-dependent antiproliferative effects
inhibition at 50 µM (A549 cells; Homo sapiens, A549, 50 μM, 72 h): ~65%
inhibition at 100 µM (A549 cells; Homo sapiens, A549, 100 μM, 72 h): ~80%
IC50 (A549 cells; Homo sapiens, A549): 33 ± 5.7 µM
antiproliferative activity in H1299 (H1299 cells): dose-dependent antiproliferative effects
IC50 (H1299 cells): 41.6 ± 6.8 µM
effect on proliferation of InEpC [1]: did not significantly affect the proliferation
HOXA9 mRNA levels [2]: downregulating also HOXA9
LC3-II/-I ratio and p62 autophagic markers (WB), HeLa [3]: A similar response

CC1=NN(c2ccc(C(=O)O)cc2)C(=O)/C1=C\c1ccc(-c2cc(C)c(C)cc2[N+](=O)[O-])o1 [VII (C646), reference compound]
IC50 (KDAC2, 3, 6, and 8): 7 to 25 µM
